This is an account of results in the supplement of paper PMC10307832.

What all share (assay): relative viability (nuclei count vs DMSO), 5 days (fraction); higher = more cells survive
Compound in assay [1]: CC(C)(C)c1cc(NC(=O)Nc2ccc(-c3cn4c(n3)sc3cc(OCCN5CCOCC5)ccc34)cc2)no1 [Quizartinib] + NC(=O)Nc1cc(-c2cccc(F)c2)sc1C(=O)N[C@H]1CCCNC1 [AZD7762] (partner 0.2 µM)
A digest of the protocol:
(§1)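 Lung cancer cell lines were seeded in 1536-well plates and dosed by pin tool the next day, with either a single drug or a fixed anchor-drug dose combined with five library-drug doses (not always all listed) spaced in √10 steps. Five days later, one step fixed the cells and stained their nuclei (final 0.05% Triton X-100, 1% formaldehyde, 1 ug/ml Hoechst), and nuclei were counted on 4× images. Relative viability is the nuclei count in treated wells divided by the count in vehicle wells, and each value is the median of duplicate plates.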

Compound in assay [2]: CC(C)(C)c1cc(NC(=O)Nc2ccc(-c3cn4c(n3)sc3cc(OCCN5CCOCC5)ccc34)cc2)no1 [Quizartinib] + COc1cccc2cc(-c3nc([C@H]4CC[C@H](C(=O)O)CC4)n4ncnc(N)c34)[nH]c12 [OSI-027] (partner 0.5 µM)
Put shortly:
as §1

Compound in assay [3]: CC(C)(C)c1cc(NC(=O)Nc2ccc(-c3cn4c(n3)sc3cc(OCCN5CCOCC5)ccc34)cc2)no1 [Quizartinib] + Cc1cc(Nc2cc(N3CCN(C)CC3)nc(Sc3ccc(NC(=O)C4CC4)cc3)n2)n[nH]1 [Tozasertib] (partner 0.1 µM)
Put shortly:
as §1

Compound in assay [4]: COCC[n+]1c2c(n(Cc3cnccn3)c1C)C(=O)c1ccccc1C2=O [YM155] + Cc1nc(NC(=O)N2CCC[C@H]2C(N)=O)sc1-c1ccnc(C(C)(C)C(F)(F)F)c1 [Alpelisib] (partner 2 µM)
Put shortly: as §1

Consider NCI-H2342, for which the relative viability in assay [1] (first compound 0.001 µM) was found to be 0.505; in assay [1] (first compound 0.003162 µM), 0.637; in assay [1] (first compound 0.01 µM), 0.471; in assay [1] (first compound 0.03162 µM), 0.544; in assay [1] (first compound 0.1 µM), 0.518; in assay [2] (first compound 0.001 µM), 0.664. Further, the relative viability in assay [2] (first compound 0.003162 µM) worked out at 0.592; in assay [2] (first compound 0.01 µM), 0.603; in assay [2] (first compound 0.03162 µM) it was 0.68; in assay [2] (first compound 0.1 µM), 0.621; in assay [3] (first compound 0.001 µM), 0.625; in assay [3] (first compound 0.003162 µM) it was 0.582. The values for the relative viability in assay [3] (first compound 0.01 µM), in assay [3] (first compound 0.03162 µM) and in assay [3] (first compound 0.1 µM) were 0.575, 0.498 and 0.457, respectively.

Turning to SK-LU-1, the relative viability in assay [2] (first compound 0.001 µM) was 0.316; in assay [2] (first compound 0.003162 µM), 0.312; in assay [2] (first compound 0.01 µM), 0.377; in assay [2] (first compound 0.03162 µM) it was 0.35; in assay [2] (first compound 0.1 µM), 0.37; in assay [3] (first compound 0.001 µM) it was 0.268. Besides, the relative viability came out at 0.303 in assay [3] (first compound 0.003162 µM); 0.378 in assay [3] (first compound 0.01 µM); 0.319 in assay [3] (first compound 0.03162 µM); 0.309 in assay [3] (first compound 0.1 µM); 1.03 in assay [4] (first compound 0.002 µM); 1.09 in assay [4] (first compound 0.006325 µM). The relative viability turned out to be 1.07 in assay [4] (first compound 0.02 µM) and 1.01 in assay [4] (first compound 0.06325 µM).

Take SK-MES-1: the relative viability came out at 0.538 in assay [2] (first compound 0.001 µM); 0.582 in assay [2] (first compound 0.003162 µM); 0.658 in assay [2] (first compound 0.01 µM); 0.622 in assay [2] (first compound 0.1 µM); 0.852 in assay [3] (first compound 0.001 µM); 0.904 in assay [3] (first compound 0.003162 µM). Besides, the relative viability was 0.864 in assay [3] (first compound 0.01 µM); 0.77 in assay [3] (first compound 0.1 µM); 0.823 in assay [4] (first compound 0.002 µM); 0.905 in assay [4] (first compound 0.006325 µM); 1.05 in assay [4] (first compound 0.02 µM); 0.715 in assay [4] (first compound 0.06325 µM).

With SW 900, the relative viability was 0.711 in assay [1] (first compound 0.001 µM); 0.498 in assay [1] (first compound 0.003162 µM); 0.597 in assay [1] (first compound 0.01 µM); 0.532 in assay [1] (first compound 0.03162 µM); 0.58 in assay [1] (first compound 0.1 µM); 0.533 in assay [2] (first compound 0.001 µM). For the same cell line, the relative viability in assay [2] (first compound 0.003162 µM) stood at 0.508; in assay [2] (first compound 0.03162 µM) it was 0.512; in assay [2] (first compound 0.1 µM), 0.569; in assay [3] (first compound 0.001 µM) it was 0.57; in assay [3] (first compound 0.003162 µM), 0.506; in assay [3] (first compound 0.03162 µM), 0.344. Further, the relative viability in assay [3] (first compound 0.1 µM) is 0.39.

For SW 1573, the relative viability in assay [2] (first compound 0.001 µM) was determined as 0.423; in assay [2] (first compound 0.003162 µM), 0.59; in assay [2] (first compound 0.01 µM), 0.573; in assay [2] (first compound 0.1 µM) it was 0.666; in assay [3] (first compound 0.001 µM), 0.163; in assay [3] (first compound 0.003162 µM), 0.175. The relative viability in assay [3] (first compound 0.01 µM) was found to be 0.225; in assay [3] (first compound 0.1 µM) it was 0.265; in assay [4] (first compound 0.002 µM), 0.73; in assay [4] (first compound 0.006325 µM) it was 0.657; in assay [4] (first compound 0.02 µM), 0.875; in assay [4] (first compound 0.06325 µM) it was 0.723.

Take UMC-11: the relative viability worked out at 0.383 in assay [2] (first compound 0.003162 µM); 0.46 in assay [2] (first compound 0.01 µM); 0.466 in assay [2] (first compound 0.03162 µM); 0.467 in assay [2] (first compound 0.1 µM); 0.194 in assay [3] (first compound 0.003162 µM); 0.204 in assay [3] (first compound 0.01 µM). Also, the relative viability in assay [3] (first compound 0.03162 µM) came to 0.223; in assay [3] (first compound 0.1 µM), 0.222; in assay [4] (first compound 0.002 µM), 1.03; in assay [4] (first compound 0.006325 µM) it was 1.06; in assay [4] (first compound 0.02 µM), 1; in assay [4] (first compound 0.06325 µM), 1.08.
